Experimental data reported in patent US10111435B2, “Herbicidal compositions containing N-(1,3,4-oxadiazol-2-yl)-aryl carboxylic acid amides” (BAYER CROPSCIENCE AKTIENGESELLSCHAFT, priority 2013, dated 2018).

What was measured:
Format in all cases: in vivo
[1] = test system: Poa annua (POAAN); assay: greenhouse post-emergence herbicidal efficacy against POAAN
Method: (§1) All trials whose results are shown were conducted in a greenhouse by the methodology specified below. The effect of the inventive herbicidal compositions was examined on the following harmful plants 14 and 21 days after application:
(§2) Echinochloa crus-galli (ECHCG), Eleusine indica (ELEIN), Setaria viridis (SETVI), Amaranthus retroflexus (AMARE), Chenopodium album (CHEAL), Kochia scoparia (KCHSC), Solanum nigrum (SOLNI), Avena fatua (AVEFA), Bromus sterilis (BROST), Lolium multiflorum (LOLMU), Phalaris minor (PHAMI), Poa annua (POAAN), Galium aparine (GALAP), Matricaria inodora (MATIN) and Polygonum convolvulus (POLCO).
(§3) The harmful plant seeds were sown in pots (diameter 8 cm) with sandy loam soil and germinated under optimal conditions. The inventive herbicidal compositions or the active ingredients alone were applied post-emergence to the planted pots with a spray volume of 300 L/ha. The trial was conducted in a greenhouse under optimum growth conditions. The herbicidal effects were assessed visually by comparison of untreated and treated plants. The percentages mean: 0%=no effects, 100%=the plants die off completely).
(§4) The abbreviations mean: • a.i.=active ingredient • E^C=expected value according to Colby (E^C=A+B−A×B/100) • Diff: =difference (%) of measured value from expected value (%) (measured value minus expected value)
(§5) Assessment: • measured value E is greater than E^C:->synergism (+ diff.) • measured value E equals E^C:->additive effect • measured value E is smaller than E^C:->antagonism(− diff.)

[2] = test system: Galium aparine (GALAP); assay: greenhouse post-emergence herbicidal efficacy against GALAP
Method: as §1, §2, §3, §4, §5

[3] = test system: Phalaris minor (PHAMI); assay: greenhouse post-emergence herbicidal efficacy against PHAMI
Method: as §1, §2, §3, §4, §5

[4] = test system: Matricaria inodora (MATIN); assay: greenhouse post-emergence herbicidal efficacy against MATIN
Method: as §1, §2, §3, §4, §5

[5] = test system: Polygonum convolvulus (POLCO); assay: greenhouse post-emergence herbicidal efficacy against POLCO
Method: as §1, §2, §3, §4, §5

[6] = test system: Lolium multiflorum (LOLMU); assay: greenhouse post-emergence herbicidal efficacy against LOLMU
Method: as §1, §2, §3, §4, §5

[7] = test system: Bromus sterilis (BROST); assay: greenhouse post-emergence herbicidal efficacy against BROST
Method: as §1, §2, §3, §4, §5

[8] = test system: Avena fatua (AVEFA); assay: greenhouse post-emergence herbicidal efficacy against AVEFA
Method: as §1, §2, §3, §4, §5

[9] = 14 days after application, g of a.i./ha: A1-57 12.5, aclonifen 200
[10] = 14 days after application, g of a.i./ha: A1-57 12.5, aclonifen 800
[11] = 14 days after application, g of a.i./ha: A1-57 50, aclonifen 200
[12] = 14 days after application, g of a.i./ha: A1-57 50, aclonifen 800
[13] = 21 days after application, g of a.i./ha: A1-57 12.5, aclonifen 800
[14] = 21 days after application, g of a.i./ha: A1-57 50, aclonifen 800
[15] = 21 days after application, g of a.i./ha: A1-57 12.5, aclonifen 200
[16] = 14 days after application, 100 g of a.i./ha
[17] = 21 days after application, g of a.i./ha: A1-55 2.5, glufosinate-ammonium 100
[18] = 21 days after application, g of a.i./ha: A1-55 10, glufosinate-ammonium 100
[19] = 14 days after application, 25 g of a.i./ha
[20] = 21 days after application, g of a.i./ha: A1-55 10, glufosinate-ammonium 25
[21] = 21 days after application, g of a.i./ha: A1-55 2.5, glufosinate-ammonium 25
[22] = 14 days after application, g of a.i./ha: A1-13 2.5, indaziflam 10
[23] = 14 days after application, g of a.i./ha: A1-13 10, indaziflam 40
[24] = 21 days after application, g of a.i./ha: A1-13 2.5, indaziflam 40
[25] = 21 days after application, g of a.i./ha: A1-13 10, indaziflam 40
[26] = 21 days after application, g of a.i./ha: A1-13 10, indaziflam 10
[27] = 14 days after application, g of a.i./ha: A1-60 2.5, isoproturon 1600
[28] = 14 days after application, g of a.i./ha: A1-60 10, isoproturon 400
[29] = 14 days after application, g of a.i./ha: A1-60 10, isoproturon 1600
[30] = 21 days after application, g of a.i./ha: A1-60 10, isoproturon 400
[31] = 14 days after application, g of a.i./ha: A1-60 2.5, isoproturon 400
[32] = 21 days after application, g of a.i./ha: A1-60 2.5, isoproturon 400
[33] = 21 days after application, g of a.i./ha: A1-60 10, isoproturon 1600
[34] = 21 days after application, g of a.i./ha: A1-14 2.5, pyrasulfotole 25
[35] = 21 days after application, g of a.i./ha: A1-14 2.5, pyrasulfotole 100
[36] = 21 days after application, g of a.i./ha: A1-14 10, pyrasulfotole 25
[37] = 21 days after application, g of a.i./ha: A1-14 10, pyrasulfotole 100

SMILES: Nc1c([N+](=O)[O-])ccc(Oc2ccccc2)c1Cl [aclonifen]
- Efficacy [1, 9]: 0%
- Efficacy [1, 10]: 30%
- Efficacy [1, 11]: 0%
- Efficacy [1, 12]: 30%
- Efficacy [1, 13]: 10%
- Efficacy ([1]; 21 days after application, g of a.i./ha: A1-57 50, aclonifen 200): 0%
- Efficacy [1, 14]: 10%
- Efficacy [2, 9]: 20%
- Efficacy [2, 11]: 20%
- Efficacy [2, 14]: 20%
- Efficacy [3, 9]: 0%
- Efficacy [3, 10]: 40%
- Efficacy [3, 11]: 0%
- Efficacy [3, 15]: 0%
- Efficacy [3, 13]: 15%
- Efficacy [4, 9]: 0%
- Efficacy [4, 10]: 0%
- Efficacy [4, 12]: 0%
- Efficacy [4, 14]: 0%
- Efficacy [5, 9]: 0%
- Efficacy [5, 10]: 10%
- Efficacy [5, 15]: 0%
- Efficacy [6, 10]: 0%
- Efficacy [6, 12]: 0%
- Efficacy [7, 9]: 0%
- Efficacy [7, 10]: 0%
- Efficacy [7, 12]: 0%
- Efficacy [7, 13]: 0%
- Efficacy [7, 14]: 0%
- Efficacy ([8]; 14 days after application, 200 g of a.i./ha): 0%
- Efficacy ([8]; 14 days after application, 800 g of a.i./ha): 0%
- Efficacy [8, 9]: 0%
- Efficacy [8, 13]: 0%

SMILES: CP(=O)(O)CCC(N)C(=O)O (stereo not shown) [glufosinate-ammonium]
- Efficacy [1, 16]: 0%
- Efficacy [1, 17]: 5%
- Efficacy [1, 18]: 5%
- Efficacy [2, 19]: 0%
- Efficacy [2, 20]: 0%
- Efficacy [3, 19]: 0%
- Efficacy [3, 16]: 15%
- Efficacy [3, 21]: 0%
- Efficacy [3, 17]: 10%
- Efficacy [3, 20]: 0%
- Efficacy [3, 18]: 10%
- Efficacy [4, 19]: 0%
- Efficacy [4, 16]: 30%
- Efficacy [4, 21]: 0%
- Efficacy [4, 17]: 15%
- Efficacy [4, 20]: 0%
- Efficacy [4, 18]: 15%
- Efficacy [5, 19]: 0%
- Efficacy [5, 16]: 25%
- Efficacy [5, 20]: 0%
- Efficacy [5, 18]: 5%
- Efficacy [6, 19]: 0%
- Efficacy [6, 16]: 25%
- Efficacy [6, 17]: 15%
- Efficacy [6, 18]: 15%
- Efficacy [7, 16]: 15%
- Efficacy [7, 17]: 15%
- Efficacy [7, 20]: 0%
- Efficacy [8, 19]: 0%
- Efficacy [8, 16]: 25%
- Efficacy [8, 17]: 20%
- Efficacy [8, 18]: 20%

SMILES: Cc1ccc2c(c1)[C@H](Nc1nc(N)nc(C(C)F)n1)[C@@H](C)C2 (stereo partly shown) [indaziflam]
- Efficacy against POAAN ([1]; 21 days after application, dosage 10 g of a.i./ha): 0%
- Efficacy [2, 22]: 50%
- Efficacy [2, 23]: 60%
- Efficacy against GALAP ([2]; 21 days after application, dosage 40 g of a.i./ha): 35%
- Efficacy ([3]; 14 days after application, g of a.i./ha: A1-13 2.5, indaziflam 40): 10%
- Efficacy [3, 23]: 10%
- Efficacy [3, 24]: 10%
- Efficacy [3, 25]: 10%
- Efficacy [4, 22]: 30%
- Efficacy ([4]; 14 days after application, g of a.i./ha: A1-13 10, indaziflam 10): 30%
- Efficacy [6, 26]: 0%
- Efficacy [7, 26]: 0%
- Efficacy [8, 24]: 10%
- Efficacy [8, 25]: 10%

SMILES: CC(C)c1ccc(NC(=O)N(C)C)cc1 [isoproturon]
- Efficacy [1, 27]: 80%
- Efficacy [1, 28]: 60%
- Efficacy [1, 29]: 80%
- Efficacy [1, 30]: 30%
- Efficacy [2, 31]: 10%
- Efficacy [2, 27]: 20%
- Efficacy [2, 28]: 10%
- Efficacy [2, 29]: 20%
- Efficacy [2, 32]: 0%
- Efficacy ([2]; 21 days after application, g of a.i./ha: A1-60 2.5, isoproturon 1600): 0%
- Efficacy [2, 30]: 0%
- Efficacy [2, 33]: 0%
- Efficacy [3, 31]: 35%
- Efficacy [3, 28]: 35%
- Efficacy [3, 29]: 80%
- Efficacy [3, 32]: 15%
- Efficacy [3, 30]: 15%
- Efficacy [4, 32]: 90%
- Efficacy [4, 30]: 90%
- Efficacy [6, 31]: 0%
- Efficacy [6, 27]: 15%
- Efficacy [6, 28]: 0%
- Efficacy [6, 29]: 15%
- Efficacy [6, 30]: 0%
- Efficacy [6, 33]: 0%
- Efficacy [7, 31]: 0%
- Efficacy [7, 27]: 5%
- Efficacy [7, 28]: 0%
- Efficacy [7, 29]: 5%
- Efficacy [7, 30]: 0%
- Efficacy [7, 33]: 0%
- Efficacy [8, 31]: 0%
- Efficacy [8, 28]: 0%
- Efficacy [8, 29]: 35%
- Efficacy [8, 32]: 0%
- Efficacy [8, 30]: 0%
- Efficacy [8, 33]: 15%

SMILES: Cc1nn(C)c(O)c1C(=O)c1ccc(C(F)(F)F)cc1S(C)(=O)=O [pyrasulfotole]
- Efficacy [1, 19]: 0%
- Efficacy [1, 16]: 0%
- Efficacy [1, 34]: 0%
- Efficacy [1, 35]: 0%
- Efficacy [2, 34]: 40%
- Efficacy [2, 36]: 40%
- Efficacy [3, 19]: 0%
- Efficacy [3, 16]: 5%
- Efficacy [3, 34]: 0%
- Efficacy [3, 35]: 0%
- Efficacy [4, 19]: 0%
- Efficacy [4, 16]: 15%
- Efficacy [4, 35]: 3%
- Efficacy [5, 19]: 50%
- Efficacy [5, 16]: 60%
- Efficacy [5, 34]: 0%
- Efficacy [5, 35]: 30%
- Efficacy [5, 36]: 0%
- Efficacy [5, 37]: 30%
- Efficacy [6, 19]: 0%
- Efficacy [6, 16]: 0%
- Efficacy [7, 19]: 0%
- Efficacy [7, 37]: 0%
